Source: PMC6337497 (International Journal of Molecular Sciences, 2018)
“Also recorded” adds a separate entry of the source.

Legend:
PC3 cells [1] = experiment: Cell cycle analysis (propidium iodide), PC3; assay type: cell-based, Human; details: for effect on cell cycle distribution (in words): PC3, 48 h at GI50 dose
Experimental: (§1) Cells were harvested after 48 h drug treatments and DNA distribution analysis of cells stained with propidium iodide solution (propidium iodide 25 µg/mL, Na-Citrate 3.4 mM, NaCl 9.65 mM, NP-40 0.03%) was performed by an Epics cytofluorimeter (Beckman Coulter Srl, Milan, Italy).

[2] = pH-metric titration, acid-base behavior (UV-vis, HypSpec); assay type: physicochemical; details: for pKa: aqueous solution diluted from a methanol mother solution, 25.0 °C, ionic strength 0.1 M NaNO3, read-out: pKa (keto-enol moiety)
Experimental: pH-metric titrations were performed in order to assess K3F acidity and predict the most abundant species in physiological condition. […] Overall protonation constants (βHL) were calculated from spectrophotometric data and optimized by means of HypSpec software (Supplementary Table S1). K3F23, K3F24 and K3F33 behaved as weak monoprotic acids, with a pKa value close to 8–8.50 associated to the keto-enol moiety. As for the other two ligands, namely K3F21 and K3F31, the acid-base equilibria were more complex in view of the polyprotic nature of the compounds, and three logβLH values were calculated. Species distribution curves (Supplementary Figure S2) provided reliable prediction of neutral and charged forms as function of pH, and consequently helped to envisage cell penetration and distribution in physiological conditions. […] As for K3F21 and K3F31, they behaved as less weak acids, in fact at pH 7 58% of K3F21 and 65% of K3F31 were found in the mono-dissociated negatively charged form (H2L^−), these percentages increased up to 74% and 86% respectively at pH 7.4. […] This outcome could be attributed to the stabilizing effect of the intramolecular hydrogen bond between the methoxyl and hydroxyl groups on the aromatic ring in the indissociated form of K3F21, which shifts the equilibrium in favor of the neutral species (H3L).
UV-vis spectrophotometric measurements were performed using Jasco V-570 spectrophotometer at 25.0 ± 0.1 °C in the 200–600 nm spectral range employing 1 cm quartz cells. Owing to the poor water solubility of the compounds, a methanol mother solution (5 × 10^−3 M) was diluted in water in order to give 50 µM solutions used for pH-metric titrations. The pH value was varied by adding small amounts of concentrated NaOH or HCl, 25 points in the pH range 3–10. A constant ionic strength of 0.1 M (NaNO3) was maintained in all the experiments. Each titration was performed at least three times. The overall protonation constants (logβLH) were evaluated from spectrophotometric data using the software HypSpec.

PC3 cells [3] = experiment: MTT cell viability assay, PC3; assay type: cell-based, Human; details: for GI50: 48 h treatment, MTT
Experimental: (§2) Human prostate cancer PC3 cells (CRL 1435, ATCC, Manassas, VA, USA) were grown in Ham’s F12 nutrient medium, human prostate cancer DU145 cells (HTB-81, ATCC, Manassas, VA, USA) in RPMI 1640 medium and human colorectal carcinoma HCT116 cells (CCL-247, ATCC, Manassas, VA, USA) in IMDM medium. All media (Biowest, Nuaillé, France) were supplemented with 10% Foetal Bovine Serum (Gibco-Thermo Fisher Scientific, Waltham, MA, USA), L-glutamine, penicillin, and streptomycin (Euroclone, Milan, Italy), and grown at 37 °C in a humidified 5% CO2 atmosphere.
(§3) DMSO was used as control.
(§4) The inhibition of cell proliferation was measured by colorimetric MTT assay and the concentration at which cellular growth is inhibited by 50% (GI50) was determined. Briefly, cells were seeded into 96-well plates at a density of 2000 cells/well. The following day, cells were treated with the indicated compounds and analyzed for cell viability after 48 h. 5 mg/mL thiazolyl blue tetrazolium bromide (Sigma-Aldrich, St. Louis, MO, USA) was added to each well at a final concentration of 0.5 mg/mL and the plates were incubated at 37 °C for 2 h. Medium containing unconverted MTT was removed and 100 µL MTT solvent (4 mM HCl, 0.1% NP-40 in isopropyl alcohol) was added to each well. The plate was gently rotated on an orbital shaker in the dark for 15 min, before the measurements of absorbance at 570 nm. The viability of untreated cells was arbitrarily set at 100%.

[4] = Kinetic stability in physiological conditions (UV-vis); assay type: physicochemical; details: after 24 h; PBS 0.01 M, NaCl 0.1M, pH = 7.4, 37 °C in darkness
Experimental: Figure 2 Stability and radical scavenging ability of K3F derivatives. (A) Residual % of K3F compounds vs. time (PBS 0.01 M, NaCl 0.1M, pH = 7.4, 37 °C in darkness). Residual % is calculated as At·100/A0, where At and A0 stand for absorbance at λmax at time t and time zero, respectively. (B) Percentage of inhibition of free DPPH radical ([DPPH^·] = 60 µM) in the presence of K3F compounds at increasing concentrations. Compounds concentration is expressed as molar ratio (compound/DPPH).
[…] 100 μM solutions of the ligands were prepared in 0.1 M Tris-HCl buffer (pH 7.4) with constant ionic strength (0.1 M NaNO3). Spectra were recorded every 30 min. All profiles were linearized by hyperbolic function (Equation (1)), which represents an empirical model that well describes drug decomposition or release. t/f% = at + b(1) where f% is the fraction of residual compound at time t (min) expressed as percentage referred to starting concentration at time zero.

DU145 cells [5] = experiment: MTT cell viability assay, DU145; assay type: cell-based, Human; details: for GI50: 48 h treatment, MTT
Experimental: as §2, §3, §4

DU145 cells [6] = experiment: Cell cycle analysis (propidium iodide), DU145; assay type: cell-based, Human; details: for effect on cell cycle distribution (in words): DU145, 48 h at GI50 dose
Experimental: as §1

DU145 cells [7] = experiment: Western blot of total cellular lysates, DU145; assay type: cell-based, Human; details: DU145, 48 h at GI50 dose
Experimental: (§8) Actin was used as loading control. Whole-cell protein extracts were prepared by resuspending cells into 1X SDS sample buffer (25 mM Tris-HCl pH 6.8, 1.5 mM EDTA, 20% glycerol, 2% SDS, 5% β-mercaptoethanol, 0.0025% Bromophenol blue). Equivalent amounts of cellular extracts were resolved by SDS-PAGE, electrotransferred to PVDF membrane (GE Healthcare Italia, Milan, Italy) and immunoblotted with the following primary antibodies: anti-phospo-H2AX (sc-101696), anti-p53 (DO1) (sc-126), anti-actin ([MUT]) (sc-1616) and anti-PARP (sc-8007) antibody from Santa Cruz Biotecnology, Inc, Dallas, TX, USA.; phospho-specific AKT antibody S473 (#9018) and T308 (#9275), Akt antibody (#9272 and #2967), phospho-specific ERK1/2 antibody T202/Y204 (#4370), ERK1/2 antibody (#4669), phospho-specific p38 MAPK antibody T180/Y182 (#9211), and p38 antibody (#9212) were purchased from Cell Signaling Technologies, Danvers, MA, USA. Membranes were blotted and scanned with Bio-Rad ChemiDocTM Touch Imaging System (Bio-Rad, Hercules, CA, USA), using chemiluminescent detection reagents from Cyanagen, Bologna, Italy (Westar ηC and Supernova HRP substrates for Western blotting).

PC3 cells [8] = experiment: Western blot of total cellular lysates, PC3; assay type: cell-based, Human; details: PC3, 48 h at GI50 dose
Experimental: as §8

PC3 cells [9] = experiment: RT-qPCR gene transcription, PC3; assay type: cell-based, Human; details: PC3, 48 h at GI50 dose
Experimental: (§5) Data are presented as relative transcript levels, normalized with RPL21 housekeeping gene, with DMSO levels arbitrarily set at 1.
(§6) RNA was extracted from cells using RNeasy kit (Qiagen, Venlo, The Netherlands) and reversed transcribed with a Moloney murine leukemia virus reverse transcriptase (Promega, Madison, WI, USA). Quantitative real-time PCRs were performed using SsoAdvanced Universal SYBR Green Supermix (Bio-Rad, Hercules, CA, USA) on a Bio-Rad CFX Connect™ real-time PCR detection system. Primer sequences are available upon request. The housekeeping gene Rpl21 was used as a loading control. The relative fold change enrichments of real-time PCR samples were calculated with the formula 2^−(ΔΔCt), where −(ΔΔCt) = −[(Ct target − Ct Rpl21)treated − (Ct target − Ct Rpl21)DMSO].

DU145 cells [10] = experiment: Cell migration (wound) assay, DU145; assay type: cell-based, Human; details: DU145, GI50 dose, 16 h
Experimental: (§7) 4 × 10^5 prostate cancer cells were plated in a 12-well plate. Approximately 24 h later, when the cells were 100% confluent, the monolayer was scratched using a 200 µL pipette tip. […] Three biological replicates were performed. Three random pictures were taken for each treated well per experiment and the areas of the wounds measured using ImageJ software. The percentage of wound recovery was then calculated using the formula: (final area-initial area)/initial area × 100%.

PC3 cells [11] = experiment: Cell migration (wound) assay, PC3; assay type: cell-based, Human; details: PC3, GI50 dose, 40 h
Experimental: as §7

DU145 cells [12] = experiment: RT-qPCR gene transcription, DU145; assay type: cell-based, Human; details: DU145, 48 h at GI50 dose
Experimental: as §5, §6

DU145 cells [13] = experiment: K3F21/docetaxel co-administration, MTT and CompuSyn, DU145; assay type: cell-based, Human; details: DU145, DTX 20nM co-administered with K3F21, 48 h
Experimental: as §4
The ability of K3F21 and docetaxel to act synergistically with regard to growth inhibition was determined using CompuSyn software (ComboSyn, Inc., freely available at http://www.combosyn.com). Combination index (CI) and drug reduction index (DRI) were calculated for each concentration of drugs mixture, as indicated in the text. CI <1, =1 or >1 indicates synergism, additive effect, or antagonism, respectively. DRI >1 or <1 indicates favorable or not favorable dose-reduction.

[14] = Antioxidant activity (DPPH assay); details: [DPPH] = 60 µM, methanol, 120 min; read-out: IC50, DPPH radical scavenging
Experimental: The antioxidant activity of the compounds was evaluated in terms of hydrogen donating or radical scavenging ability, using the stable DPPH radical (1,1-diphenyl-2-picrylhydrazyl radical). A variable amount (15, 30, 45, 75, 105, and 150 µL) of a methanol solution (1.2 mM) of each compound was placed in a cuvette, and 3 mL of a 60 µM methanol solution of DPPH was added. Absorbance measurements were initiated immediately. The decrease in absorbance at 517 nm was monitored every minute up to 5′, then every 5′ up to 30′ and every 30′ until reaction reaches completion and absorbance stabilizes attaining a plateau after 120′. Methanol was used to zero the spectrophotometer. The absorbance of the DPPH radical without K3F compound, i.e., the control, was measured daily, and concentration was calculated applying Equation (2) (2) [DPPH^·]=A−1.006/10970
The percentage of inhibition (%In) of the DPPH radical by each sample was calculated according to the formula (3) %In=A0−At/A0×100 where A0 represents the absorbance of the control (DPPH radical) at time 0, while At refers to the absorbance of the mixture DPPH/antioxidant at time t (120 min). Values of absorbance were corrected taking into account volume dilution and all determinations were performed in triplicate.

metastatic CRPC = test system: metastatic CRPC; set-up: method as in PMID 12644816, PMID 11448901; details: Phase II clinical trial; cited from earlier work

Compound: 2-((4Z,6E)-4-cinnamoyl-5-hydroxy-7-phenylhepta-4,6-dien-1-yl)isoindoline-1,3-dione [K3F33]
- effect on cell cycle distribution (in words) (PC3 cells [1]): doubled the percentage of G2/M cells; also recorded: significantly increases SubG1 events
- prevailing species ([2]; pH 7): neutral one (HL)
- GI50 (PC3 cells [3]): 21.8 µM
- residual percentage [4]: ~60%
- GI50 (DU145 cells [5]): 23.3 µM
- effect on cell cycle distribution (in words) (DU145 cells [6]): ability to arrest cell cycle progression

Compound: COc1cc(C=CC(=O)CC(=O)C=Cc2ccc(O)c(OC)c2)ccc1O [Curcumin, 1,7-bis [4-hydroxy-3-methoxyphenyl]-1,6-heptadiene-3,5-Dione, reference compound]
- ERK1/2 phosphorylation (DU145 cells [7]): increased
- phospho-p38 expression (DU145 cells [7]): no changes were observed
- γH2AX expression (marker of DNA damage) (DU145 cells [7]): increased γH2AX in PC3 only
- ERK1/2 phosphorylation (PC3 cells [8]): increased
- phosphorylation of AKT in Ser473 and Thr308 (PC3 cells [8]): inhibited
- γH2AX expression (marker of DNA damage) (PC3 cells [8]): increased
- Noxa transcription (PC3 cells [9]): induced
- transcription of CDK inhibitors p21 and p27 (PC3 cells [9]): increased
- PC3 % CELLS G2/M (PC3 cells [1]; 48 h at GI50 concentration): 37%
- effect on cell cycle distribution (in words) (PC3 cells [1]): significantly increases SubG1 events
- cell migration (wound recovery) (DU145 cells [10]): inhibitory effects on the migratory capacity
- GI50 (PC3 cells [3]; Homo sapiens, PC-3, 48 h): 21 µM
- cell migration (wound recovery) (PC3 cells [11]): inhibitory effects on the migratory capacity
- GI50 (DU145 cells [5]; Homo sapiens, DU-145): 17.3 µM
- Noxa transcription (DU145 cells [12]): induced
- DU145 % CELLS SubG1 (DU145 cells [6]; 48 h at GI50 concentration): 5%
- effect on cell cycle distribution (in words) (DU145 cells [6]): mainly acts as a cytotoxic drug

Compound: CC(=O)O[C@@]12CO[C@@H]1C[C@H](O)[C@@]1(C)C(=O)[C@H](O)C3=C(C)[C@@H](OC(=O)[C@H](O)[C@@H](NC(=O)OC(C)(C)C)c4ccccc4)C[C@@](O)([C@@H](OC(=O)c4ccccc4)[C@H]21)C3(C)C [Docetaxel, reference compound]
- effect on cell cycle distribution (in words) (PC3 cells [1]): high cytotoxic effect associated to a robust increase in SubG1 events
- IC50 (PC3 cells [3]; Homo sapiens, PC-3, PC3, MTT assay): 0.03 µM
- IC50 (DU145 cells [5]; Homo sapiens, DU-145, DU145, MTT assay): 0.017 µM
- effect on cell cycle distribution (in words) (DU145 cells [6]): high cytotoxic effect associated to a robust increase in SubG1 events
- DTX drug reduction index (DRI) (DU145 cells [13]): 2.9

Compound: COc1cccc(/C=C/C(=O)C(CCCN2C(=O)c3ccccc3C2=O)C(=O)/C=C/c2cccc(OC)c2)c1 [K3F23]
- effect on cell cycle distribution (in words) (PC3 cells [1]): doubled the percentage of G2/M cells
- pKa [2]: 8 to 8.5
- prevailing species ([2]; pH 7): neutral one (HL)
- GI50 (PC3 cells [3]; Homo sapiens, PC-3, 48 h): 12.4 µM
- GI50 (DU145 cells [5]; Homo sapiens, DU-145): 12.5 µM
- effect on cell cycle distribution (in words) (DU145 cells [6]): both arrested the G2/M progression and induced cell death

Compound: COc1cc(/C=C/C(=O)C(CCCN2C(=O)c3ccccc3C2=O)C(=O)/C=C/c2ccc(OC(C)=O)c(OC)c2)ccc1OC(C)=O [K3F24]
- effect on cell cycle distribution (in words) (PC3 cells [1]): doubled the percentage of G2/M cells
- pKa [2]: 8 to 8.5
- prevailing species ([2]; pH 7): neutral one (HL)
- GI50 (PC3 cells [3]; Homo sapiens, PC-3, 48 h): 16.7 µM
- GI50 (DU145 cells [5]; Homo sapiens, DU-145): 13.2 µM
- effect on cell cycle distribution (in words) (DU145 cells [6]): ability to arrest cell cycle progression

Compound: O=C(/C=C/c1ccc(O)cc1)C(CCCN1C(=O)c2ccccc2C1=O)C(=O)/C=C/c1ccc(O)cc1 [K3F31]
- IC50 [14]: 120 µM
- mono-dissociated negatively charged form (H2L−) ([2]; pH 7): 65%
- mono-dissociated negatively charged form (H2L−) ([2]; pH 7.4): 86%

Compound: O=C1CCC(N2C(=O)c3ccccc3C2=O)C(=O)N1 (centres unmarked) [thalidomide]
- patients with a decline in PSA of ≥40% (metastatic CRPC): 30–40%
